Among the test systems are UO-31 renal; MDA-MB-231 breast; CAKI-1 renal; SK-MEL-28 melanoma; HL-60(TB) leukemia; SF-539 CNS; KM12 colon; EKVX NSCLC; TK-10 renal; HT29 colon; RXF 393 renal; 786-0 renal; A498 renal; OVCAR-5 ovarian; M14 melanoma; NCI-H522 lung; OVCAR-4 ovarian; A549 NSCLC; SR leukemia.
Common to all, as to assay: inhibition of tumour cell growth, NCI panel, 48 h

Structures are written as SMILES.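 Protocol summary: plate cells (96-well), add compound at 5 concentrations, incubate 48 h, interpolate endpoints linearly. Definition used: TGI = concentration required for complete inhibition of growth.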

For `CCOC(=O)c1nnsc1NN=C(C)C`, the TGI in the assay with UO-31 renal, with MDA-MB-231 breast, in the assay on CAKI-1 renal, in the assay on SK-MEL-28 melanoma, with HL-60(TB) leukemia and in the assay with SF-539 CNS was greater than 100 µM in each case. For the same molecule, the TGI with KM12 colon, in the assay with EKVX NSCLC, in the assay with TK-10 renal, with HT29 colon, in the assay on RXF 393 renal and in the assay on 786-0 renal was greater than 100 µM each time. The TGI in the assay on A498 renal, in the assay on OVCAR-5 ovarian, in the assay with M14 melanoma, with NCI-H522 lung, in the assay with OVCAR-4 ovarian and with A549 NSCLC was greater than 100 µM in each case.

For `COC(=O)c1ccc(COC(=O)N2C=CCC2C(=O)O)cc1` (stereo not drawn), the TGI with UO-31 renal, in the assay with MDA-MB-231 breast, with CAKI-1 renal, with SK-MEL-28 melanoma, in the assay on SF-539 CNS and in the assay with KM12 colon was greater than 100 µM in each case. Moreover, the TGI in the assay on SR leukemia, with TK-10 renal, in the assay with HT29 colon, in the assay on RXF 393 renal, in the assay with 786-0 renal and in the assay with OVCAR-5 ovarian was greater than 100 µM each time. Besides, the TGI in the assay with M14 melanoma, in the assay with NCI-H522 lung and with A549 NSCLC was greater than 100 µM each time.

For `COC(=O)C(Cc1c(C2Nc3ccccc3C2CC(NC(C)=O)C(=O)OC)[nH]c2ccccc12)NC(C)=O` (stereo not drawn), the TGI in the assay with UO-31 renal, in the assay with MDA-MB-231 breast, in the assay on CAKI-1 renal, in the assay with SK-MEL-28 melanoma, with HL-60(TB) leukemia and in the assay on SF-539 CNS was greater than 100 µM throughout. Further, the TGI in the assay on KM12 colon, in the assay on EKVX NSCLC, in the assay with TK-10 renal, in the assay on HT29 colon, in the assay with RXF 393 renal and in the assay with 786-0 renal was greater than 100 µM throughout. For the same molecule, the TGI in the assay on A498 renal, in the assay with OVCAR-5 ovarian, with M14 melanoma, in the assay with NCI-H522 lung and in the assay on A549 NSCLC was greater than 100 µM throughout.

As for `NCCCCN(CCCN)Cc1ccc2ccccc2c1`, the TGI with UO-31 renal is 71 µM; in the assay with MDA-MB-231 breast, greater than 100 µM; with CAKI-1 renal, 33 µM; with SK-MEL-28 melanoma it was greater than 100 µM; in the assay with HL-60(TB) leukemia it was greater than 100 µM; with SF-539 CNS, greater than 100 µM. Also, the TGI with KM12 colon, in the assay on EKVX NSCLC, with TK-10 renal, in the assay on HT29 colon, with RXF 393 renal and with 786-0 renal was greater than 100 µM in each case. Besides, the TGI with A498 renal was greater than 100 µM; in the assay with OVCAR-5 ovarian, greater than 100 µM; in the assay with M14 melanoma, greater than 100 µM; in the assay on NCI-H522 lung, 37.6 µM; in the assay with OVCAR-4 ovarian it was greater than 100 µM; with A549 NSCLC, greater than 100 µM.

On to `CC(C)(C)C1(O)C=C(O)C(=O)N1NC(=O)c1ccccc1Nc1ccccc1` (stereo not drawn), for which the TGI is greater than 100 µM in the assay on UO-31 renal; greater than 100 µM in the assay on MDA-MB-231 breast; greater than 100 µM with CAKI-1 renal; greater than 100 µM in the assay with SK-MEL-28 melanoma; 7.25 µM in the assay on HL-60(TB) leukemia; greater than 100 µM with SF-539 CNS. Moreover, the TGI in the assay with KM12 colon, with EKVX NSCLC, with TK-10 renal, in the assay on HT29 colon, with RXF 393 renal and in the assay with 786-0 renal was greater than 100 µM each time. The TGI with A498 renal is greater than 100 µM; in the assay on OVCAR-5 ovarian, greater than 100 µM; with M14 melanoma, greater than 100 µM; with NCI-H522 lung, 81.2 µM; in the assay on OVCAR-4 ovarian, greater than 100 µM; in the assay on A549 NSCLC it was greater than 100 µM.

With `CC1C2(C)OC(=N)C(C#N)(C(C)O2)C1(C#N)C#N` (stereo not drawn), the TGI with UO-31 renal is greater than 100 µM; in the assay with MDA-MB-231 breast, 41.6 µM; with CAKI-1 renal, 26.4 µM; in the assay on SK-MEL-28 melanoma it was 88.6 µM; in the assay with HL-60(TB) leukemia, 41.1 µM; in the assay on SF-539 CNS it was 47.1 µM. The TGI is greater than 100 µM in the assay with KM12 colon; greater than 100 µM in the assay with EKVX NSCLC; greater than 100 µM in the assay with TK-10 renal; greater than 100 µM in the assay with HT29 colon; 35.7 µM in the assay on RXF 393 renal; 62 µM with 786-0 renal. Also, the TGI was greater than 100 µM in the assay with A498 renal, greater than 100 µM in the assay with OVCAR-5 ovarian, 35.8 µM in the assay on M14 melanoma and greater than 100 µM with A549 NSCLC.

In the case of `CS/C(=N\S(=O)(=O)c1cc(C)c(Cl)cc1Cl)NNc1cnc2ccccc2n1`, the TGI with UO-31 renal, in the assay on MDA-MB-231 breast, in the assay on CAKI-1 renal, with SK-MEL-28 melanoma, with HL-60(TB) leukemia and with SF-539 CNS was greater than 100 µM throughout. Further, the TGI with KM12 colon, in the assay on EKVX NSCLC, with TK-10 renal, in the assay with HT29 colon, with RXF 393 renal and in the assay with 786-0 renal was greater than 100 µM throughout. For the same molecule, the TGI in the assay on A498 renal, in the assay with OVCAR-5 ovarian, in the assay with M14 melanoma, in the assay with NCI-H522 lung, in the assay on OVCAR-4 ovarian and with A549 NSCLC was greater than 100 µM throughout.

For `CC[C@@H]1CC[C@@H]2[C@H](CC[C@]3(C)[C@@H](O)CC[C@@H]23)[C@H]1CO`, the TGI in the assay on UO-31 renal is greater than 100 µM; in the assay on MDA-MB-231 breast, greater than 100 µM; in the assay with CAKI-1 renal, greater than 100 µM; in the assay on SK-MEL-28 melanoma, greater than 100 µM; with HL-60(TB) leukemia, 85.8 µM; in the assay with SF-539 CNS it was greater than 100 µM. Moreover, the TGI with KM12 colon, in the assay on EKVX NSCLC, with TK-10 renal, with HT29 colon, in the assay with RXF 393 renal and with 786-0 renal was greater than 100 µM each time. Also, the TGI in the assay with A498 renal, in the assay on OVCAR-5 ovarian, in the assay with M14 melanoma, in the assay on NCI-H522 lung, with OVCAR-4 ovarian and with A549 NSCLC was greater than 100 µM in each case.

Values taken from PubChem BioAssay (NCI).
